Experimental data taken from US7829110B2, “Surgical implant comprising an anabolic and a corticosteroid” (Ethicon, Inc., priority 2003, dated 2010).

Test system: fibroblast (human, dermal)
Experiment: fibroblast contraction (human, dermal)
Assay type: cell-based
Conditions: human dermal fibroblasts; even at low doses
Source text: Cortisone prevents fibroblast contraction (human, dermal) even at low doses (below 10^−6 M)

With C[C@]12CCC(=O)C=C1CC[C@@H]1[C@@H]2C(=O)C[C@@]2(C)[C@H]1CC[C@]2(O)C(=O)CO [Cortisone, cortisone] the “dose preventing fibroblast contraction” value was “below 10^−6 M”.
